System: HEK293 cells
Assay: Preliminary screening as DNA vectors, GFP transfection of HEK293 cells
Format: cell-based
Conditions: amino lipid/DOPE liposome with 75 ng plasmid DNA (psin-EGFP-IRES-Puro); number of GFP-expressing cells divided by total nuclei (Hoechst)
Summary of the method: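 Lipid + DOPE liposomes (NaOAc, pH 5.6) complexed w/ 75 ng psin-EGFP-IRES-Puro, 30 min RT; added to 3-5×10^4 HEK293/well, 37° C. Hoechst 0.2 μg/mL at 20-24 h, imaged after further 20-24 h. Efficiency = GFP+ cells / total nuclei.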

| Structure (SMILES) | Absolute DNA transfection efficiency in HEK293 cells [%] |
| --- | --- |
| CCCCCCCCCCSc1nc(NCCN(CC)CC)nc(SCCCCCC)n1 [S6S10 D7] | 7.7 |
| CCCCCCCCCCCCSc1nc(NCCCN(C)C)nc(N(CCCCCCCCCCCC)CCCCCCCCCCCC)n1 [S12^2N12 D6] | 0.3 |
| CCCCCCCCCCCCN(CCCCCCCCCCCC)c1nc(NCCN(C)C)nc(SCCCCCC)n1 [S6^2N12 D1] | 0.4 |
| CCCCCCCCCCCCN(CCCCCCCCCCCC)c1nc(NCCN2CCOCC2)nc(SCCCCCCCCCC)n1 [S10^2N12 D2] | 0.0 |
| CCCCCCCCCCCCCCCCSc1nc(NCCN(CC)CC)nc(SCCCCCCC)n1 [S7S16 D7] | 3.5 |
| CCCCCCCCNc1nc(NCCCN2CCN(C)CC2)nc(SCCCCCC)n1 [S6N8 D9] | 1.2 |
| CCCCCCCCCCCCCCCCCCSc1nc(NCCCN2CCOCC2)nc(SCCCCCCC)n1 [S7S18 D8] | 16.1 |
| CCCCCCCCSc1nc(NCCCCCC)nc(NCCN(CC)CC)n1 [S8N6 D7] | 1.8 |
| CCCCCCCCCCCCCCCNc1nc(NCCN(CC)CC)nc(SCCCCCCCCCCCCCCC)n1 [S15N15 D7] | 0.4 |
| CCCCCCCCCCCCCCCNc1nc(NCCCN2CCN(C)CC2)nc(SCCCCCCCCCCCCCCC)n1 [S15N15 D9] | 0.5 |
| CCCCCCCCCCCCCCCCCCSc1nc(NCCCN(C)C)nc(N(CCCCCCCCCCCC)CCCCCCCCCCCC)n1 [S18^2N12 D6] | 1.6 |
| CCCCCCCCCCCCCCCCSc1nc(NCCN2CCN(C)CC2)nc(SCCCCCC)n1 [S6S16 D5] | 15.2 |
| CCCCCCCCCNc1nc(NCCN2CCOCC2)nc(SCCCCCCC)n1 [S7N9 D2] | 13.9 |
| CCCCCCCCCCCCCNc1nc(NCC2CCN(C)CC2)nc(SCCCCCC)n1 [S6N13 D10] | 51.6 |
| CCCCCCCCCCCNc1nc(NCCN(C)C)nc(SCCCCCCCCCC)n1 [S10N11 D1] | 4.8 |
| CCCCCCCCCCCCCCCSc1nc(NCCCCCCCCCCC)nc(NCCN2CCN(C)CC2)n1 [S15N11 D5] | 11.8 |
| CCCCCCCCCCCCNc1nc(NCCN2CCCCC2)nc(SCCCCCCCCCCCC)n1 [S12N12 D4] | 0.1 |
| CCCCCCCCSc1nc(NCC2CCN(C)CC2)nc(SCCCCCCCC)n1 [S8S8 D10] | 27.9 |
| CCCCCCCCCCCCCCCCNc1nc(NCCN2CCCCC2)nc(SCCCCCCCCCCCCCCCC)n1 [S16N16 D4] | 3.4 |
| CCCCCCCCCCCCCCCSc1nc(NCCN2CCN(C)CC2)nc(SCCCCCC)n1 [S6S15 D5] | 13.7 |
| CCCCCCCCCCCCN(CCCCCCCCCCCC)c1nc(NCCN2CCOCC2)nc(SCCCCCCCC)n1 [S8^2N12 D2] | 0.0 |
| CCCCCCCSc1nc(NCCCN(C)C)nc(SCCCCCCC)n1 [S7S7 D6] | 10.3 |
| CCCCCCCCCCCCCCSc1nc(NCCCCCC)nc(NCCN2CCN(C)CC2)n1 [S14N6 D5] | 21.7 |
| CCCCCCCNc1nc(NCCCN2CCN(C)CC2)nc(SCCCCCCC)n1 [S7N7 D9] | 10.9 |
| CCCCCCCCCCCCCCCCCCSc1nc(NCCCCCCCCC)nc(NCCN2CCCCC2)n1 [S18N9 D4] | 4.0 |
| CCCCCCCCCCCCCCCNc1nc(NCCN(CC)CC)nc(SCCCCCC)n1 [S6N15 D7] | 1.2 |
| CCCCCCCCCNc1nc(NCCN2CCN(C)CC2)nc(SCCCCCC)n1 [S6N9 D5] | 7.9 |

| Structure (SMILES) | Absolute DNA transfection efficiency in HEK293 cells [%] |
| --- | --- |
| CCCCCCCCCCCCCCCCCCNc1nc(NCCN2CCCC2)nc(SCCCCCCCCCC)n1 [S10N18 D3] | 11.9 |
| CCCCCCCNc1nc(NCCN(C)C)nc(SCCCCCC)n1 [S6N7 D1] | 0.1 |
| CCCCCCCCCCCCCCSc1nc(NCCCCCCCCCCCCC)nc(NCCN2CCCC2)n1 [S14N13 D3] | 9.1 |
| CCCCCCCSc1nc(NCCCCCC)nc(NCCCN2CCOCC2)n1 [S7N6 D8] | 4.7 |
| CCCCCCCCCCCCCCCSc1nc(NCCCCCCCCCCCC)nc(NCCN(CC)CC)n1 [S15N12 D7] | 5.9 |
| CCCCCCCCCCSc1nc(NCCCCCCCC)nc(NCCN2CCOCC2)n1 [S10N8 D2] | 3.7 |
| CCCCCCCCCCCCSc1nc(NCCCCCCCC)nc(NCCN2CCOCC2)n1 [S12N8 D2] | 0.1 |
| CCCCCCCCCCCCCCCCCCNc1nc(NCCN(CC)CC)nc(SCCCCCCCCCCCCCCCC)n1 [S16N18 D7] | 0.0 |
| CCCCCCCCCCCCCCCSc1nc(NCCCCCC)nc(NCC2CCN(C)CC2)n1 [S15N6 D10] | 26.5 |
| CCCCCCCCCCCCSc1nc(NCCCCCCCC)nc(NCCN2CCN(C)CC2)n1 [S12N8 D5] | 13.8 |
| CCCCCCCCCCCCCCSc1nc(NCCCCCCCCC)nc(NCCCN2CCOCC2)n1 [S14N9 D8] | 10.7 |
| CCCCCCCCCSc1nc(NCCCCCCC)nc(NCCN2CCCCC2)n1 [S9N7 D4] | 21.9 |
| CCCCCCCCCCCCCCCCNc1nc(NCCCN2CCN(C)CC2)nc(SCCCCCCCCCCCCCCCC)n1 [S16N16 D9] | 0.0 |
| CCCCCCCCCCCCCCCNc1nc(NCCCN2CCN(C)CC2)nc(SCCCCCCCCCC)n1 [S10N15 D9] | 4.1 |
| CCCCCCCCCCCCCCCNc1nc(NCCCN2CCOCC2)nc(SCCCCCCCCCCCCCC)n1 [S14N15 D8] | 0.3 |
| CCCCCCCCCCCNc1nc(NCCN2CCCCC2)nc(SCCCCCCCCCC)n1 [S10N11 D4] | 8.7 |
| CCCCCCCCCCCCCNc1nc(NCCCN(C)C)nc(SCCCCCCCC)n1 [S8N13 D6] | 55.1 |
| CCCCCCCCCSc1nc(NCCN2CCCCC2)nc(SCCCCCCCC)n1 [S8S9 D4] | 13.2 |
| CCCCCCCCCCSc1nc(NCCCCCCCCC)nc(NCC2CCN(C)CC2)n1 [S10N9 D10] | 4.5 |
| CCCCCCCCCCCCNc1nc(NCCN(C)C)nc(SCCCCCCC)n1 [S7N12 D1] | 18.2 |
| CCCCCCCCCCCCCCCSc1nc(NCCCCCCCCCCCCC)nc(NCCCN2CCN(C)CC2)n1 [S15N13 D9] | 3.2 |
| CCCCCCCCCCCCCCCNc1nc(NCCN(C)C)nc(SCCCCCCCCCCCC)n1 [S12N15 D1] | 0.8 |
| CCCCCCCCCCCCNc1nc(NCCN2CCCCC2)nc(SCCCCCCCCC)n1 [S9N12 D4] | 8.0 |
| CCCCCCCCCCCCCCCCCCNc1nc(NCCN(C)C)nc(SCCCCCCCCC)n1 [S9N18 D1] | 24.2 |
| CCCCCCCCCCCCCCCNc1nc(NCC2CCN(C)CC2)nc(SCCCCCCCC)n1 [S8N15 D10] | 22.6 |
| CCCCCCCCCCCCCCCCNc1nc(NCCN(C)C)nc(SCCCCCCCCCCC)n1 [S11N16 D1] | 8.2 |
